Test results: ChEMBL document CHEMBL4507256 (2021)

Key:
[1] = system: Tyrosine-protein kinase ABL1 (Homo sapiens), P00519 [H396P]; conditions: Compound concentration 1000.0 nM
[2] = system: Tyrosine-protein kinase ABL1 (Homo sapiens), P00519 [T315I]; conditions: Compound concentration 1000.0 nM
[3] = biological target: Activin receptor type-1B (Homo sapiens) (UniProt P36896); conditions: Compound concentration 1000.0 nM
[4] = biological target: Bone morphogenetic protein receptor type-2 (Homo sapiens) (UniProt Q13873); conditions: Compound concentration 1000.0 nM
Sequence of Bone morphogenetic protein receptor type-2 (Homo sapiens) (Q13873 whole entry): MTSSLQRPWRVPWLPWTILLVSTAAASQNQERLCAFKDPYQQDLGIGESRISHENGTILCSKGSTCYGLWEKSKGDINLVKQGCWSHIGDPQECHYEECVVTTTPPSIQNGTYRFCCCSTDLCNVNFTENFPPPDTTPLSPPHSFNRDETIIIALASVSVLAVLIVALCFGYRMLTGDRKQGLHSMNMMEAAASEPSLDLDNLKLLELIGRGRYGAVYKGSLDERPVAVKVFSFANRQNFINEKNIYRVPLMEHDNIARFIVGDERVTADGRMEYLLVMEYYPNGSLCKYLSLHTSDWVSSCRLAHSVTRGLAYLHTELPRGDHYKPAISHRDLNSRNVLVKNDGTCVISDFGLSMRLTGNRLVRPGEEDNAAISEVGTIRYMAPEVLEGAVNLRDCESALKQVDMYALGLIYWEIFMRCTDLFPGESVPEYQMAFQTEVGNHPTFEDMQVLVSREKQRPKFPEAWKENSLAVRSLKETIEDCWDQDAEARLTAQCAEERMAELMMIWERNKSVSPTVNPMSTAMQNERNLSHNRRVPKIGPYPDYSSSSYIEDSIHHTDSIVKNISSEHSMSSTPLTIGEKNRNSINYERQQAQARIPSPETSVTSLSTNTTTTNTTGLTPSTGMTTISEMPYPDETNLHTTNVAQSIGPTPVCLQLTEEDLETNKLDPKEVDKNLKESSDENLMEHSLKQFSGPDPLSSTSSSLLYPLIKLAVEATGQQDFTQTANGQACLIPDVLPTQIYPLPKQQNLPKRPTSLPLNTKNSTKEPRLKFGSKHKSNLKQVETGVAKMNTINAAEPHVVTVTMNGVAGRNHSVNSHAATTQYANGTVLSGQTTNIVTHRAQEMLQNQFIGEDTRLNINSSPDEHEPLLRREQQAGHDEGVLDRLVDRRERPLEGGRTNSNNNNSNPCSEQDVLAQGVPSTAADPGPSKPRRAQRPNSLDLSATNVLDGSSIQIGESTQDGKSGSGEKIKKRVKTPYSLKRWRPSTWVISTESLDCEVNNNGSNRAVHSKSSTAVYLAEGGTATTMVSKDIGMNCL

[5] = system: Serine/threonine-protein kinase B-raf (Homo sapiens), P15056 [V600E]; conditions: Compound concentration 1000.0 nM
[6] = biological target: Cyclin-dependent kinase 19 (Homo sapiens) (UniProt Q9BWU1); conditions: Compound concentration 1000.0 nM
[7] = biological target: Cyclin-dependent kinase-like 3 (Homo sapiens) (UniProt Q8IVW4); conditions: Compound concentration 1000.0 nM
[8] = biological target: Dual specificity protein kinase CLK3 (Homo sapiens) (UniProt P49761); conditions: Compound concentration 1000.0 nM
[9] = system: Epidermal growth factor receptor (Homo sapiens), P00533 [G719S]; conditions: Compound concentration 1000.0 nM
[10] = biological target: Ephrin type-A receptor 7 (Homo sapiens) (UniProt Q15375); conditions: Compound concentration 1000.0 nM
[11] = biological target: Tyrosine-protein kinase FRK (Homo sapiens) (UniProt P42685); conditions: Compound concentration 1000.0 nM
Sequence of Tyrosine-protein kinase FRK (Homo sapiens) (P42685 whole entry): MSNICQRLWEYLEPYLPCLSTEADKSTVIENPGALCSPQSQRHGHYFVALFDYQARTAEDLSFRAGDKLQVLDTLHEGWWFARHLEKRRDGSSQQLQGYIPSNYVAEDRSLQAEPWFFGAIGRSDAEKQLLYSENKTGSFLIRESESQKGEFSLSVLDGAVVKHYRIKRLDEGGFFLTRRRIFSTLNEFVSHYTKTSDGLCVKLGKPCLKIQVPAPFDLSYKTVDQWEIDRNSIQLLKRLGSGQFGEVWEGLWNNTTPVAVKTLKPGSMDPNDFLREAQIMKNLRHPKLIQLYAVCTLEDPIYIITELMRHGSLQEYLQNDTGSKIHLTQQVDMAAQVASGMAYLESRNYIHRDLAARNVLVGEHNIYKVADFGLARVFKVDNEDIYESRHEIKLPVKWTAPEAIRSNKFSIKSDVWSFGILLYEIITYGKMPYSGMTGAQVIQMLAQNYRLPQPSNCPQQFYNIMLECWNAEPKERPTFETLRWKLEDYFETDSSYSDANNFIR

[12] = biological target: Serine/threonine-protein kinase haspin (Homo sapiens) (UniProt Q8TF76); conditions: Compound concentration 1000.0 nM
[13] = biological target: Serine/threonine-protein kinase STK11 (Homo sapiens) (UniProt Q15831); conditions: Compound concentration 1000.0 nM
[14] = system: Leucine-rich repeat serine/threonine-protein kinase 2 (Homo sapiens), Q5S007 [G2019S]; conditions: Compound concentration 1000.0 nM
[15] = biological target: MAP kinase-activated protein kinase 5 (Homo sapiens) (UniProt Q8IW41); conditions: Compound concentration 1000.0 nM
[16] = biological target: Microtubule-associated serine/threonine-protein kinase 1 (Homo sapiens) (UniProt Q9Y2H9); conditions: Compound concentration 1000.0 nM
Sequence of Microtubule-associated serine/threonine-protein kinase 1 (Homo sapiens) (Q9Y2H9 whole entry, looked up): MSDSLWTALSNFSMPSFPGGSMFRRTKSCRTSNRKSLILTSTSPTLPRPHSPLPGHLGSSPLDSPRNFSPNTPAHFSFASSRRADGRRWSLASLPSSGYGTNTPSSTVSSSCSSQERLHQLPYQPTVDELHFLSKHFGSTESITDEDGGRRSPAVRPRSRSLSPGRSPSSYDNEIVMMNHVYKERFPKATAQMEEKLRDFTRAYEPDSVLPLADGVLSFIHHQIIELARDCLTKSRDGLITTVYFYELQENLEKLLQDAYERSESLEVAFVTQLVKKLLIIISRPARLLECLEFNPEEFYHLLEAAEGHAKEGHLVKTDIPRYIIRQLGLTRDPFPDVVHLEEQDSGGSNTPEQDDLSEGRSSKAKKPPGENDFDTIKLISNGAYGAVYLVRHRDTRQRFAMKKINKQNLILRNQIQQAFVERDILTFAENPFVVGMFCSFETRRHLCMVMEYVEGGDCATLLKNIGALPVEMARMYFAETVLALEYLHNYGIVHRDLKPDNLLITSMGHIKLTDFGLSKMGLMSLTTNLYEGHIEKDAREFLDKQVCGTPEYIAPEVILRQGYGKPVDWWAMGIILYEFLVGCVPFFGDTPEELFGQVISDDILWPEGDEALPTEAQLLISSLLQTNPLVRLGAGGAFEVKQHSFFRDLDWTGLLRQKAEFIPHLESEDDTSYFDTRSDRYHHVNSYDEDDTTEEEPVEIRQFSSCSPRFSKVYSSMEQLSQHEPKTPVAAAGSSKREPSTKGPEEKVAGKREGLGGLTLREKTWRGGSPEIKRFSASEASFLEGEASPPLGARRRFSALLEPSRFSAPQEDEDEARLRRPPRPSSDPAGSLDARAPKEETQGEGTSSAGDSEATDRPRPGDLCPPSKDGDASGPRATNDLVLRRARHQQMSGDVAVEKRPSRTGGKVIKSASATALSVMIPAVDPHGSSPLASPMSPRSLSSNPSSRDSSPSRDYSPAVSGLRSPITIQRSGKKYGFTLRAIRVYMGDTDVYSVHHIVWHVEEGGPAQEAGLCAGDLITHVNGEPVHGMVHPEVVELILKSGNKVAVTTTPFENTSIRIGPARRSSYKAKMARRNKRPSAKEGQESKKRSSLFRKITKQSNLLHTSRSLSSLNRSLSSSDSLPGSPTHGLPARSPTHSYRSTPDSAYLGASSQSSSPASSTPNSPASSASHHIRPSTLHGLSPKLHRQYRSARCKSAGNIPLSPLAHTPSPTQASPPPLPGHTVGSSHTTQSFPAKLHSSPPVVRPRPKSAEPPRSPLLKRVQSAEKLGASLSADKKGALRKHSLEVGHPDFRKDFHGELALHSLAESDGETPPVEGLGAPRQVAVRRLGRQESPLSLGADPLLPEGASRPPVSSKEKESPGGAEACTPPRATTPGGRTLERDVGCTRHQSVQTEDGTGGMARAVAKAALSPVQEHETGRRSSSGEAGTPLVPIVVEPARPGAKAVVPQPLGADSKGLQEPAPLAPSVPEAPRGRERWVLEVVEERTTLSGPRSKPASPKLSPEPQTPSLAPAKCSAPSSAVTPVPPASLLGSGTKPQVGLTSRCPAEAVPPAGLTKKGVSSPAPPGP

[17] = biological target: Mitogen-activated protein kinase kinase kinase 9 (Homo sapiens) (UniProt P80192); conditions: Compound concentration 1000.0 nM
[18] = biological target: Serine/threonine-protein kinase 26 (Homo sapiens) (UniProt Q9P289); conditions: Compound concentration 1000.0 nM
[19] = biological target: Myosin-IIIa (Homo sapiens) (UniProt Q8NEV4); conditions: Compound concentration 1000.0 nM
[20] = biological target: Serine/threonine-protein kinase PAK 2 (Homo sapiens) (UniProt Q13177); conditions: Compound concentration 1000.0 nM
[21] = biological target: Cyclin-dependent kinase 17 (Homo sapiens) (UniProt Q00537); conditions: Compound concentration 1000.0 nM
[22] = biological target: Phosphatidylinositol 3-kinase C2 domain-containing subunit gamma (Homo sapiens) (UniProt O75747); conditions: Compound concentration 1000.0 nM
Sequence of Phosphatidylinositol 3-kinase C2 domain-containing subunit gamma (Homo sapiens) (O75747 whole entry, the tested form may be a part, canonical isoform): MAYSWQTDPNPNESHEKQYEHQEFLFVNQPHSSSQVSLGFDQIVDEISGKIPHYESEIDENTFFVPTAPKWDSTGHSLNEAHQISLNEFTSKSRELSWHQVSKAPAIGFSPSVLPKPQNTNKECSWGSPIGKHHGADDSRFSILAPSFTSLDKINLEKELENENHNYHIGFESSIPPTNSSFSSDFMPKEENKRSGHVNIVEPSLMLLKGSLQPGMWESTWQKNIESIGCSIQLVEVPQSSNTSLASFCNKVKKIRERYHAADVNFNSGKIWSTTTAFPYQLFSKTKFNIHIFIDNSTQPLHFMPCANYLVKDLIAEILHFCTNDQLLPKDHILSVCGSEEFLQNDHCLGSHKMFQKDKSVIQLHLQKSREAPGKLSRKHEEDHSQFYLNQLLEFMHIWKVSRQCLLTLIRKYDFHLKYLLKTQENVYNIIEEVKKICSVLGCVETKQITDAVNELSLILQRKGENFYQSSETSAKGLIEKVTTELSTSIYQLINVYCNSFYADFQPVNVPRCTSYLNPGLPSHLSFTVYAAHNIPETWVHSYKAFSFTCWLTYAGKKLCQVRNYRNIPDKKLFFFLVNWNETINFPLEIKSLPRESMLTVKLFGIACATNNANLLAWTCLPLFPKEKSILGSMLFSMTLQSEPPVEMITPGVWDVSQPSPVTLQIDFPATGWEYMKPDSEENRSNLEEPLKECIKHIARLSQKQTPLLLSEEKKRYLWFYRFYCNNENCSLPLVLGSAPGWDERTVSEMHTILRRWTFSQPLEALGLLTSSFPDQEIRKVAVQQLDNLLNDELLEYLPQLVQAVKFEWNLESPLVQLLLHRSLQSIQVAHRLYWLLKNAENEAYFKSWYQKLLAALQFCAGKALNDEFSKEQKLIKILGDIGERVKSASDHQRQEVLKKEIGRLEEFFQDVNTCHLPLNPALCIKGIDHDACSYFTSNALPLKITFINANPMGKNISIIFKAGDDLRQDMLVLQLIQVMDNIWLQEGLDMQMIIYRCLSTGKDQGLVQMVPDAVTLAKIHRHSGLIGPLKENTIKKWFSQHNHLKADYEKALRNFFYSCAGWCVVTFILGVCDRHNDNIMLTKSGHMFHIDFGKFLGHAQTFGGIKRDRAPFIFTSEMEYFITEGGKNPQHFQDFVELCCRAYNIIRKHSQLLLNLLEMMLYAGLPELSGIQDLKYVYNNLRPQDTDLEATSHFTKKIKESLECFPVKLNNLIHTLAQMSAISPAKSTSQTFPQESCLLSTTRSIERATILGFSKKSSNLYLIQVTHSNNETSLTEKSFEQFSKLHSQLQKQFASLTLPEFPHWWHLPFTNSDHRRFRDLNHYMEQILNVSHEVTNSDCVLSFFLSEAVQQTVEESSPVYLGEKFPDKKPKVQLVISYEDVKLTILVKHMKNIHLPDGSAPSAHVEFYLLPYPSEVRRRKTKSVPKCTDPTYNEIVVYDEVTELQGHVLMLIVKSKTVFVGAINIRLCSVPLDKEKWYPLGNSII

[23] = biological target: Phosphatidylinositol 4,5-bisphosphate 3-kinase catalytic subunit alpha isoform (Homo sapiens) (UniProt P42336); conditions: Compound concentration 1000.0 nM
[24] = biological target: Protein-tyrosine kinase 2-beta (Homo sapiens) (UniProt Q14289); conditions: Compound concentration 1000.0 nM
[25] = biological target: Ribosomal protein S6 kinase alpha-3 (Homo sapiens) (UniProt P51812); conditions: Compound concentration 1000.0 nM
[26] = biological target: Serine/threonine-protein kinase SBK1 (Homo sapiens) (UniProt Q52WX2); conditions: Compound concentration 1000.0 nM
[27] = biological target: Serine/threonine-protein kinase Sgk3 (Homo sapiens) (UniProt Q96BR1); conditions: Compound concentration 1000.0 nM
[28] = biological target: STE20/SPS1-related proline-alanine-rich protein kinase (Homo sapiens) (UniProt Q9UEW8); conditions: Compound concentration 1000.0 nM
[29] = biological target: Mitogen-activated protein kinase kinase kinase 7 (Homo sapiens) (UniProt O43318); conditions: Compound concentration 1000.0 nM
[30] = biological target: Serine/threonine-protein kinase tousled-like 2 (Homo sapiens) (UniProt Q86UE8); conditions: Compound concentration 1000.0 nM
[31] = biological target: Serine/threonine-protein kinase TNNI3K (Homo sapiens) (UniProt Q59H18); conditions: Compound concentration 1000.0 nM
[32] = biological target: NT-3 growth factor receptor (Homo sapiens) (UniProt Q16288); conditions: Compound concentration 1000.0 nM
[33] = biological target: Phosphatidylinositol 3-kinase catalytic subunit type 3 (Homo sapiens) (UniProt Q8NEB9); conditions: Compound concentration 1000.0 nM
[34] = biological target: Wee1-like protein kinase 2 (Homo sapiens) (UniProt P0C1S8); conditions: Compound concentration 1000.0 nM
[35] = biological target: Serine/threonine-protein kinase WNK3 (Homo sapiens) (UniProt Q9BYP7); conditions: Compound concentration 1000.0 nM
[36] = biological target: Serine/threonine-protein kinase WNK4 (Homo sapiens) (UniProt Q96J92); conditions: Compound concentration 1000.0 nM
[37] = biological target: 5-hydroxytryptamine receptor 1B (Homo sapiens) (UniProt P28222); conditions: Compound concentration 10.0 uM
[38] = biological target: T1, D(4) dopamine receptor (Homo sapiens) (UniProt P21917); conditions: Compound concentration 10.0 uM
T1 sequence (whole entry): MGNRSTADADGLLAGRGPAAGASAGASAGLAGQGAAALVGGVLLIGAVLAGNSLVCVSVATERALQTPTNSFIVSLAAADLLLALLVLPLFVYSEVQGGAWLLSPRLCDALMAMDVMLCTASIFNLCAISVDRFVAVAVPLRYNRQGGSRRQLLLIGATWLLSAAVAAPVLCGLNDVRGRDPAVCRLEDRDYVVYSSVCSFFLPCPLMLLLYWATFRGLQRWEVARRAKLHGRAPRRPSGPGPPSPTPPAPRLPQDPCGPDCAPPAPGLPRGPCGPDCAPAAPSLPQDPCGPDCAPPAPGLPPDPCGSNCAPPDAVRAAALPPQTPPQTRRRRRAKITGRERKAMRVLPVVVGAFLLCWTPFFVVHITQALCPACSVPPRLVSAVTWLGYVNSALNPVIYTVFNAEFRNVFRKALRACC

[39] = biological target: Mu-type opioid receptor (Homo sapiens) (UniProt P35372); conditions: Compound concentration 10.0 uM
Sequence of Mu-type opioid receptor (Homo sapiens) (P35372 whole entry): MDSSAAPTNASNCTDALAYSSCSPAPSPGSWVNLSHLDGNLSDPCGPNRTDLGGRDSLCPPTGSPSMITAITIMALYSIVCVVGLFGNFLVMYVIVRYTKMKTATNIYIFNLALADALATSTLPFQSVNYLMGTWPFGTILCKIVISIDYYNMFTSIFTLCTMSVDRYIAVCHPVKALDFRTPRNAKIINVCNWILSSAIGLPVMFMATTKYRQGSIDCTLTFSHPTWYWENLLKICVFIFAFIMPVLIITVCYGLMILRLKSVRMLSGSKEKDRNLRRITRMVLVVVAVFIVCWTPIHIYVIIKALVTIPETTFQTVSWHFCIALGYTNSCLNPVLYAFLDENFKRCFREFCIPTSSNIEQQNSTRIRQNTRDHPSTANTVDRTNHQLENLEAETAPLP

CCC(=N\O)/C(C)=C/c1ccc(F)c(C)c1 [A-226]
inactive: residual activity [1] 100% | residual activity [2] 88% | residual activity [3] 82% | residual activity [4] 100% | residual activity [5] 100% | residual activity [6] 100% | residual activity [7] 86% | residual activity [8] 100% | residual activity [9] 79% | residual activity [10] 92% | residual activity [11] 80% | residual activity [12] 100% | residual activity [13] 100% | residual activity [14] 100% | residual activity [15] 100% | residual activity [16] 100% | residual activity [17] 100% | residual activity [18] 100% | residual activity [19] 94% | residual activity [20] 79% | residual activity [21] 99% | residual activity [22] 98% | residual activity [23] 100% | residual activity [24] 98% | residual activity [25] 100% | residual activity [26] 100% | residual activity [27] 100% | residual activity [28] 100% | residual activity [29] 99% | residual activity [30] 100% | residual activity [31] 53% | residual activity [32] 100% | residual activity [33] 100% | residual activity [34] 100% | residual activity [35] 100% | residual activity [36] 78% | inhibition [37] -1.04% | inhibition [38] 18.6% | inhibition [39] -1.52%

CCC(=N\O)/C(C)=C/c1ccc(F)cc1 [A-079]
inactive: residual activity [1] 72% | residual activity [2] 87% | residual activity [3] 77% | residual activity [4] 81% | residual activity [5] 77% | residual activity [6] 79% | residual activity [7] 80% | residual activity [8] 73% | residual activity [9] 67% | residual activity [10] 86% | residual activity [11] 100% | residual activity [12] 65% | residual activity [13] 100% | residual activity [14] 100% | residual activity [15] 91% | residual activity [16] 71% | residual activity [17] 77% | residual activity [18] 81% | residual activity [19] 100% | residual activity [20] 82% | residual activity [21] 90% | residual activity [22] 75% | residual activity [23] 100% | residual activity [24] 99% | residual activity [25] 100% | residual activity [26] 100% | residual activity [27] 81% | residual activity [28] 94% | residual activity [29] 81% | residual activity [30] 100% | residual activity [31] 70% | residual activity [32] 88% | residual activity [33] 83% | residual activity [34] 83% | residual activity [35] 75% | residual activity [36] 100% | inhibition [37] 7.88% | inhibition [38] 19.5% | inhibition [39] -5.9%
